According to ChEMBL document CHEMBL2086231, “Novel pleuromutilin derivatives as antibacterial agents: synthesis, biological evaluation and molecular docking studies” (2012):
≈ marks a conversion by molar mass, not a printed value.

test system: Staphylococcus aureus; assay: Antibacterial activity against methicillin-sensitive Staphylococcus aureus isolate cpu0211 after 18 to 20 hrs by agar dilution method; format: functional

| Compound | MIC [µg/mL] |
| --- | --- |
| C=C[C@]1(C)C[C@@H](OC(=O)CSCCN(CC)CC)[C@]2(C)[C@H](C)CC[C@]3(CCC(=O)[C@H]32)[C@@H](C)[C@@H]1O [TIAMULIN] | 2 (≈ 4.05 µM) |

test system: Staphylococcus aureus; assay: Antibacterial activity against methicillin-sensitive Staphylococcus aureus isolate cpu0587 after 18 to 20 hrs by agar dilution method; format: functional

| Compound | MIC [µg/mL] |
| --- | --- |
| C=C[C@]1(C)C[C@@H](OC(=O)CSCCN(CC)CC)[C@]2(C)[C@H](C)CC[C@]3(CCC(=O)[C@H]32)[C@@H](C)[C@@H]1O [TIAMULIN] | 8 (≈ 16.2 µM) |

test system: Staphylococcus aureus; assay: Antibacterial activity against methicillin-sensitive Staphylococcus aureus isolate cpu1044 after 18 to 20 hrs by agar dilution method; format: functional

| Compound | MIC [µg/mL] |
| --- | --- |
| C=C[C@]1(C)C[C@@H](OC(=O)CSCCN(CC)CC)[C@]2(C)[C@H](C)CC[C@]3(CCC(=O)[C@H]32)[C@@H](C)[C@@H]1O [TIAMULIN] | 8 (≈ 16.2 µM) |

test system: Staphylococcus aureus; assay: Antibacterial activity against methicillin-sensitive Staphylococcus aureus isolate cpu1344 after 18 to 20 hrs by agar dilution method; format: functional

| Compound | MIC [µg/mL] |
| --- | --- |
| C=C[C@]1(C)C[C@@H](OC(=O)CSCCN(CC)CC)[C@]2(C)[C@H](C)CC[C@]3(CCC(=O)[C@H]32)[C@@H](C)[C@@H]1O [TIAMULIN] | 2 (≈ 4.05 µM) |

test system: Staphylococcus aureus; assay: Antibacterial activity against methicillin-resistant Staphylococcus aureus isolate cpu0446 after 18 to 20 hrs by agar dilution method; format: functional

| Compound | MIC [µg/mL] |
| --- | --- |
| C=C[C@]1(C)C[C@@H](OC(=O)CSCCN(CC)CC)[C@]2(C)[C@H](C)CC[C@]3(CCC(=O)[C@H]32)[C@@H](C)[C@@H]1O [TIAMULIN] | 2 (≈ 4.05 µM) |

test system: Staphylococcus aureus; assay: Antibacterial activity against methicillin-resistant Staphylococcus aureus isolate cpu0887 after 18 to 20 hrs by agar dilution method; format: functional

| Compound | MIC [µg/mL] |
| --- | --- |
| C=C[C@]1(C)C[C@@H](OC(=O)CSCCN(CC)CC)[C@]2(C)[C@H](C)CC[C@]3(CCC(=O)[C@H]32)[C@@H](C)[C@@H]1O [TIAMULIN] | 0.5 (≈ 1.01 µM) |

test system: Staphylococcus aureus; assay: Antibacterial activity against methicillin-resistant Staphylococcus aureus isolate cpu1098 after 18 to 20 hrs by agar dilution method; format: functional

| Compound | MIC [µg/mL] |
| --- | --- |
| C=C[C@]1(C)C[C@@H](OC(=O)CSCCN(CC)CC)[C@]2(C)[C@H](C)CC[C@]3(CCC(=O)[C@H]32)[C@@H](C)[C@@H]1O [TIAMULIN] | 2 (≈ 4.05 µM) |

test system: Staphylococcus aureus; assay: Antibacterial activity against methicillin-resistant Staphylococcus aureus isolate cpu3256 after 18 to 20 hrs by agar dilution method; format: functional

| Compound | MIC [µg/mL] |
| --- | --- |
| C=C[C@]1(C)C[C@@H](OC(=O)CSCCN(CC)CC)[C@]2(C)[C@H](C)CC[C@]3(CCC(=O)[C@H]32)[C@@H](C)[C@@H]1O [TIAMULIN] | 2 (≈ 4.05 µM) |

test system: Staphylococcus epidermidis; assay: Antibacterial activity against methicillin-sensitive Staphylococcus epidermidis isolate cpu0315 after 18 to 20 hrs by agar dilution method; format: functional

| Compound | MIC [µg/mL] |
| --- | --- |
| C=C[C@]1(C)C[C@@H](OC(=O)CSCCN(CC)CC)[C@]2(C)[C@H](C)CC[C@]3(CCC(=O)[C@H]32)[C@@H](C)[C@@H]1O [TIAMULIN] | 0.0625 (≈ 0.127 µM) |

test system: Staphylococcus epidermidis; assay: Antibacterial activity against methicillin-sensitive Staphylococcus epidermidis isolate cpu0347 after 18 to 20 hrs by agar dilution method; format: functional

| Compound | MIC [µg/mL] |
| --- | --- |
| C=C[C@]1(C)C[C@@H](OC(=O)CSCCN(CC)CC)[C@]2(C)[C@H](C)CC[C@]3(CCC(=O)[C@H]32)[C@@H](C)[C@@H]1O [TIAMULIN] | 0.5 (≈ 1.01 µM) |

test system: Staphylococcus epidermidis; assay: Antibacterial activity against methicillin-sensitive Staphylococcus epidermidis isolate cpu2089 after 18 to 20 hrs by agar dilution method; format: functional

| Compound | MIC [µg/mL] |
| --- | --- |
| C=C[C@]1(C)C[C@@H](OC(=O)CSCCN(CC)CC)[C@]2(C)[C@H](C)CC[C@]3(CCC(=O)[C@H]32)[C@@H](C)[C@@H]1O [TIAMULIN] | 0.5 (≈ 1.01 µM) |

test system: Staphylococcus epidermidis; assay: Antibacterial activity against methicillin-sensitive Staphylococcus epidermidis isolate cpu1561 after 18 to 20 hrs by agar dilution method; format: functional

| Compound | MIC [µg/mL] |
| --- | --- |
| C=C[C@]1(C)C[C@@H](OC(=O)CSCCN(CC)CC)[C@]2(C)[C@H](C)CC[C@]3(CCC(=O)[C@H]32)[C@@H](C)[C@@H]1O [TIAMULIN] | 0.0625 (≈ 0.127 µM) |

test system: Staphylococcus epidermidis; assay: Antibacterial activity against methicillin-resistant Staphylococcus epidermidis isolate cpu2623 after 18 to 20 hrs by agar dilution method; format: functional

| Compound | MIC [µg/mL] |
| --- | --- |
| C=C[C@]1(C)C[C@@H](OC(=O)CSCCN(CC)CC)[C@]2(C)[C@H](C)CC[C@]3(CCC(=O)[C@H]32)[C@@H](C)[C@@H]1O [TIAMULIN] | 1 (≈ 2.03 µM) |

test system: Staphylococcus epidermidis; assay: Antibacterial activity against methicillin-resistant Staphylococcus epidermidis isolate cpu3889 after 18 to 20 hrs by agar dilution method; format: functional

| Compound | MIC [µg/mL] |
| --- | --- |
| C=C[C@]1(C)C[C@@H](OC(=O)CSCCN(CC)CC)[C@]2(C)[C@H](C)CC[C@]3(CCC(=O)[C@H]32)[C@@H](C)[C@@H]1O [TIAMULIN] | 1 (≈ 2.03 µM) |

test system: Staphylococcus epidermidis; assay: Antibacterial activity against methicillin-resistant Staphylococcus epidermidis isolate cpu3569 after 18 to 20 hrs by agar dilution method; format: functional

| Compound | MIC [µg/mL] |
| --- | --- |
| C=C[C@]1(C)C[C@@H](OC(=O)CSCCN(CC)CC)[C@]2(C)[C@H](C)CC[C@]3(CCC(=O)[C@H]32)[C@@H](C)[C@@H]1O [TIAMULIN] | 0.25 (≈ 0.506 µM) |

test system: Staphylococcus epidermidis; assay: Antibacterial activity against methicillin-resistant Staphylococcus epidermidis isolate cpu2736 after 18 to 20 hrs by agar dilution method; format: functional

| Compound | MIC [µg/mL] |
| --- | --- |
| C=C[C@]1(C)C[C@@H](OC(=O)CSCCN(CC)CC)[C@]2(C)[C@H](C)CC[C@]3(CCC(=O)[C@H]32)[C@@H](C)[C@@H]1O [TIAMULIN] | 0.0625 (≈ 0.127 µM) |

test system: Brachyspira pilosicoli; assay: Antibacterial activity against Brachyspira pilosicoli; format: functional

| MIC [µg/mL] | Compound |
| --- | --- |
| 0.03 (≈ 0.0531 µM) | C=C[C@]1(C)C[C@@H](OC(=O)CSC(C)(C)CNC(=O)[C@H](N)C(C)C)[C@]2(C)[C@H](C)CC[C@]3(CCC(=O)[C@H]32)[C@@H](C)[C@@H]1O [VALNEMULIN] |

test system: Staphylococcus aureus; assay: Antibacterial activity against Staphylococcus aureus; format: functional

| Compound | MIC [µg/mL] |
| --- | --- |
| C=C[C@]1(C)C[C@@H](OC(=O)CS[C@@H]2C[C@H]3CC[C@@H](C2)N3C)[C@]2(C)[C@H](C)CC[C@]3(CCC(=O)[C@H]32)[C@@H](C)[C@@H]1O [RETAPAMULIN] | 0.12 (≈ 0.232 µM) |

test system: Streptococcus pyogenes; assay: Antibacterial activity against Streptococcus pyogenes; format: functional

| Compound | MIC [µg/mL] |
| --- | --- |
| C=C[C@]1(C)C[C@@H](OC(=O)CS[C@@H]2C[C@H]3CC[C@@H](C2)N3C)[C@]2(C)[C@H](C)CC[C@]3(CCC(=O)[C@H]32)[C@@H](C)[C@@H]1O [RETAPAMULIN] | 0.016 (≈ 0.0309 µM) |

test system: Mycoplasma; assay: Antimicrobial activity against Mycoplasma by serial two fold dilution assay; format: functional

| Compound | MIC [µg/mL] |
| --- | --- |
| C=C[C@]1(C)C[C@@H](OC(=O)CSCCN(CC)CC)[C@]2(C)[C@H](C)CC[C@]3(CCC(=O)[C@H]32)[C@@H](C)[C@@H]1O [TIAMULIN] | < 1 |
